Laboratory results: patent publication US11673871B2, “Certain (2S)-N-[(1S)-1-cyano-2-phenylethyl]-1,4-oxazepane-2-carboxamides as dipeptidyl peptidase 1 inhibitors” (AstraZeneca AB, priority 2014, dated 2023)

Experiment: Test B: In-vitro competitive aortic tissue binding assay
Conditions: 100 μM compound pre-incubated overnight at 37° C. with rat aortic homogenate, competition with 100 μM [14C] WO2010/128324 Ex. 3
Method: To assist the design of DPP1 inhibitors with a decreased risk of binding to elastin rich tissues, such as the aorta, the in-vitro competitive aortic binding assay disclosed below (Test B) was developed to facilitate the selection process.
Test B: In-vitro competitive aortic tissue binding assay Aortic homogenate was prepared from the thoracic aortae of Han Wistar rats. Freshly isolated thoracic aortae were frozen, and later thawed and stripped of non-elastic material. […] Homogenate concentration was adjusted to 30 mg/mL in Puck's saline, and aliquots were stored at −80° C. until use. Positive and negative control compounds and test compounds were made up to 100 mM in DMSO, and added to 1 mL aliquots of aortic homogenate in Puck's saline for a final concentration of 100 μM. Homogenate samples were pre-incubated with test compounds at 37° C., rotating, overnight. [^14C]4-Amino-N-[(1S)-1-cyano-2-(4′-cyanobiphenyl-4-yl)ethyl]tetrahydro-2H-pyran-4-carboxamide was then added to all samples to a final concentration of 100 μM, and samples were incubated at 37° C., rotating, for a further 2 h. Protein was precipitated from each sample by the addition of 10 mL acetone, pre-chilled to −20° C. Samples were left overnight at −20° C. to allow complete precipitation. Precipitate was pelleted by centrifugation at 4,500×g at 4° C. for 20 min, an aliquot of supernatant was removed for analysis, and the remainder of the supernatant discarded. Precipitate was washed by resuspension in 10 mL 80% methanol in distilled water, and re-pelleted by centrifugation at 4,500×g at 4° C. for 20 min. […] After final wash, precipitate was air-dried, and dissolved overnight in 1 mL NCSII Tissue Solubiliser. 1 mL aliquots of supernatants were added to 5 mL Ultima Gold scintillation fluid (Perkin Elmer, MA, U.S.A.), and 1 mL solubilised pellets were added to 5 mL Hionic-Fluor scintillation fluid (Perkin Elmer, MA, U.S.A.). Radioactivity of samples was determined on a Beckman LS6500 multipurpose scintillation counter (Beckman Coulter, IN, U.S.A.). […] Duplicate samples were tested for each compound on each experimental occasion, and at least two experiments were run for each test compound. […] 1-way ANOVA and Bonferroni's multiple comparison tests were performed to calculate significance of differences from vehicle control.

Aortic Tissue Binding	Compound
No binder	Cn1c(=O)oc2ccc(-c3ccc(C[C@@H](C#N)NC(=O)[C@@H]4CNCCCO4)cc3)cc21 [Example 2, (2S)-N-{(1S)-1-Cyano-2-[4-(3-methyl-2-oxo-2,3-dihydro-1,3-benzoxazol-5-yl)phenyl]ethyl}-1,4-oxazepane-2-carboxamide]
Medium binder	Cn1c(=O)oc2ccc(-c3ccc(C[C@@H](C#N)NC(=O)[C@@H]4CCCCN4)cc3)cc21 [WO2009/074829 (Example 96)]
Strong binder	Cn1c(=O)oc2ccc(-c3ccc(C[C@@H](C#N)NC(=O)C4(N)CCOCC4)cc3)cc21 [WO2010/128324 (Example 17)]
Strong binder (reference)	N#Cc1ccc(-c2ccc(C[C@@H](C#N)NC(=O)C3(N)CCOCC3)cc2)cc1 [WO2010/128324 (Ex. 3), 4-amino-N-[(1S)-1-cyano-2-(4′-cyanobiphenyl-4-yl)ethyl]tetrahydro-2H-pyran-4-carboxamide]
Binder	N#Cc1ccc(-c2ccc(C[C@@H](C#N)NC(=O)[C@@H]3CCCCN3)cc2)cc1 [WO2009/074829 (Example 24)]
